# Assay results: patent publication US20180171411A1, “GFRalpha1 AS A BIOMARKER FOR CISPLATIN-INDUCED CHEMORESISTANCE AND METASTASIS” (THE BOARD OF REGENTS OF THE UNIVERSITY OF TEXAS SYSTEM, priority 2015, published 2018)
# Tests used:
# [1] = tested on: GDNF mRNA in MG-63 and U-2 OS cells; experiment: PCR of GDNF mRNA expression after cisplatin; assay type: cell-based, human; conditions: 10 and 20 μM of cisplatin, 24 h
# Procedure: FIG. 7. GFRα1-mediated chemoresistance of osteosarcoma cells is independent of GDNF. (a) Quantitative real-time PCR of GDNF mRNA expression after cisplatin treatment. MG-63 and U-2 OS cells were treated with different concentrations of cisplatin for 24 h. (b-d) Cell viability was measured using the WST-1 assay. The values are represented as a mean±s.d.m. (n=3). (b) MG-63 cells were treated with PBS or GDNF (50 ng/ml) for 24 h. (c) Control and GFRα1-overexpressing cells were cultured and treated with PBS or GDNF for 24 h. (d) Control and GFRα1-overexpressing cells were treated and cultured with PBS only, Cisplatin, or Cisplatin+GDNF (50 ng/ml) for 24 h, respectively. […] Representative images of RFP-LC3 and GFP-LC3 puncta. Scale bar, 20 μm. Control and GFRα1-overexpressing MG-63 cells were transiently transfected with an RFP-GFP tandem fluorescent-tagged LC3 (RFP-GFP-LC3) and then treated with PBS (top two panels) or cisplatin (20 μM; bottom two panes) for 24 h. […] (f) Quantitative analysis of the number of yellow puncta and the number of RFP-LC3 puncta in the combined images of Control and GFRα1-overexpressing MG-63 cells treated with GDNF. […]
# Semi-quantitative RT-PCR. […]
# [2] = tested on: cytoplasmic HMGB1 in MG-63/GFRα1 tumors; experiment: Immunofluorescence of HMGB1 in xenograft tumors; assay type: in vivo, mouse; conditions: tumors of MG-63/GFRα1 cell grafted mice
# Procedure: FIG. 5. GFRα1-mediated autophagy promotes chemoresistance and tumor growth in vivo. (a) BALB/c nude mice (n =40) were injected with MG-63 cells that were transfected with either control or GFRα1 expressing vector. Tumor volume was measured every 3 or 4 days. Data are shown as mean±SEM. ** p<0.05. (b) BALB/c nude mice (n=20) were injected with MG-63 cells that were transfected with either control or GFRα1 shRNA. Tumor volume was measured every 3 or 4 days. Data are shown as mean±SEM. ** p<0.05. (c) Tumors that were generated from mice injected with MG-63 cells containing GFRα1 expressing vector were directly injected with PBS, CQ, cisplatin, or cisplatin+CQ. Tumor volume was measured every 4 days. […] Right, quantitative analysis of percentage of cytoplasmic HMGB1-positive cells in HMGB1-positive tumors. […] Right, quantitative analysis of percentage of TUNEL-positive cells in HMGB1-positive tumors. […]
# Immunohistochemistry. […] For immunofluorescence, immunohistochemistry of patient tissues and mouse tumors are incubated with the Alexa Fluor 488- and 647-conjugated secondary antibodies (Invitrogen), and nuclei were counterstained with DAPI (Sigma-Aldrich) Immunofluorescence was detected by confocal microscopy. […] Thus, marked plus (+) was considered to be positive immunoreactivity, while that minus (−) was considered to be negative immunoreactivity (not detected). […]
smiles,measurement,setting,value
"N.N.[Cl][Pt][Cl] [cisplatin, Cis-Diamineplatinum(II) dichloride]",GDNF mRNA expression,[1],increase
same,HMGB1 expression localized in the cytoplasm,[2],significant increase
